Results: ChEMBL document CHEMBL1201862, “PubChem BioAssay data set” (2004)
pIC50: −log10 of the molar value. Active and inactive are the calls of the source.

What was measured:
[1] = tested on: HEK293; experiment: HEK cell cytotoxicity by LDH release, dose response, cytotoxicity control for IDE activator project, fluorescence, HEK cells (AID 588440); type: functional, cell-based; details: Homo sapiens;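 note: cytotoxicity by LDH release measuring loss of membrane integrity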
[2] = tested on: HEK293; experiment: optical interference in Abeta FP readout, dose response, artefact control for IDE activator project, biochemical, fluorescence polarization (AID 588442); type: functional, cell-based; details: Homo sapiens
[3] = molecular target: T1, Ubiquitin-conjugating enzyme E2 N (Homo sapiens, UniProt P61088); type: functional
T1 sequence (P61088 whole entry): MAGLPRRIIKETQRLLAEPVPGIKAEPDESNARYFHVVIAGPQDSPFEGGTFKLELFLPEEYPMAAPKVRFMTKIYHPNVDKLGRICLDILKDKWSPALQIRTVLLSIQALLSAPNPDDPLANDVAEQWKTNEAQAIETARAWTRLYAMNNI

[4] = molecular target: T1, Ubiquitin-conjugating enzyme E2 N; type: functional; remark: listed apart in the source
[5] = molecular target: T2, Insulin-degrading enzyme (Homo sapiens, UniProt P14735); experiment: activators of recombinant IDE enzyme, dose response, counter-screen for IDE activator project, biochemical, fluorescence polarization (AID 588681)
T2 sequence (P14735 whole entry): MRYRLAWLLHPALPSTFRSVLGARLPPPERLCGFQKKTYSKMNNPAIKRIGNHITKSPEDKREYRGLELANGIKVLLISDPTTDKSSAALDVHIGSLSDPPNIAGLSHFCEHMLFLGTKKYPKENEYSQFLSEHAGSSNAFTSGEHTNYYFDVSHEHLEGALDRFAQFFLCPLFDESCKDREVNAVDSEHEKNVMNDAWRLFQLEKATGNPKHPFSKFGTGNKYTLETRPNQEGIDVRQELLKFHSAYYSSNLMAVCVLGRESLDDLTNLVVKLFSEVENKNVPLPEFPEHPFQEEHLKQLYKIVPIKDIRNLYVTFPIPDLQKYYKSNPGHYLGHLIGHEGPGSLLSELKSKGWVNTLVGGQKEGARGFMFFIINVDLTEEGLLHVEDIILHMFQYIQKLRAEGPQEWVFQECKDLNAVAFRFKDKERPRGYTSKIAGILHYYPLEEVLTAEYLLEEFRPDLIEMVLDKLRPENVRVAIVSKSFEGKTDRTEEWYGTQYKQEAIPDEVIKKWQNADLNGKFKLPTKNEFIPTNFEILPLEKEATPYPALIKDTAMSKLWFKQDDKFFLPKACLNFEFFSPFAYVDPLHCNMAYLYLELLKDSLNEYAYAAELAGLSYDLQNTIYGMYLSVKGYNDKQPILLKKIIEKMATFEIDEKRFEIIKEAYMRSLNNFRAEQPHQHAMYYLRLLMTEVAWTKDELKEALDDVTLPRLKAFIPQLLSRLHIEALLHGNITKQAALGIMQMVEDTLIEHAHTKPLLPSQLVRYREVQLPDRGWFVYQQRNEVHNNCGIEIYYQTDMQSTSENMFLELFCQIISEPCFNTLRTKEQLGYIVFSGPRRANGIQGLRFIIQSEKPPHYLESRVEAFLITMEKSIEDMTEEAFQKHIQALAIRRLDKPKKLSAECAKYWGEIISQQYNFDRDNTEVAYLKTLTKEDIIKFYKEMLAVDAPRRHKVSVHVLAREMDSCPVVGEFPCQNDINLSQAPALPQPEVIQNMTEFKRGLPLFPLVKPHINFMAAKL

[6] = molecular target: T3, Bcl-2-related protein A1 (Mus musculus, UniProt Q07440); type: functional;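 note: confirmatory dose–response counterscreen on Bfl-1, used to check hits from a UBC13 polyubiquitin inhibitor campaign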
T3 sequence (Q07440 whole entry): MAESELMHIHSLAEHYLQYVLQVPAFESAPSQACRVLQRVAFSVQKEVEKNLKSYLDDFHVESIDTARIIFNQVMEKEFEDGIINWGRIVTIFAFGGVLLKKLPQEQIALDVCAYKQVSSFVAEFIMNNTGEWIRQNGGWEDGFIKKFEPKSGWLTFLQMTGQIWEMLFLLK

[7] = molecular target: T2, Insulin-degrading enzyme; experiment: activators of endogenous IDE in HEK cells, dose response, cell-based, fluorescence polarization (AID 588439); type: functional
[8] = molecular target: T4, Probable nicotinate-nucleotide adenylyltransferase (Staphylococcus aureus (strain N315), UniProt P65502); type: functional, Staphylococcus aureus subsp. aureus N315;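 for IC50 Mean: confirmatory dose-response retesting of NadD inhibitor hits first found in an ultra-high-throughput screen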
[9] = molecular target: T4, Probable nicotinate-nucleotide adenylyltransferase; type: functional, Staphylococcus aureus subsp. aureus N315; details: read-out: IC50_Mean
[10] = molecular target: 72 kDa type IV collagenase (Homo sapiens, UniProt P08253); experiment: Dose Response validation of uHTS RPN11 inhibitor hits using a MMP-2 Fluorescence assay.; type: functional
[11] = molecular target: 26S proteasome non-ATPase regulatory subunit 14 (Homo sapiens, UniProt O00487); experiment: inhibition of proteasome subunit RPN11 – biochemical, fluorescence polarization, uHTS hits, confirmation (AID 602368); type: functional
[12] = molecular target: Prothrombin (Bos taurus, UniProt P00735); experiment: thrombin inhibition, dose response, biochemical, fluorescence polarization, uHTS hits (AID 602369); type: functional
[13] = tested on: CHO; experiment: cytotoxicity in TLR9-MyD88 CHO cells, dose response, cytotoxicity control for TLR9-MyD88 binding inhibitor project, cell-based, luminescence (AID 588339); type: functional, hamster; details: Cricetulus griseus;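 note: CHO cells stably coexpressing TLR9 and MyD88 fusions from primary screen; compound exposure lasted 48 hours before viability readout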
[14] = molecular target: T5, Fatty acid synthase (Homo sapiens, UniProt P49327); experiment: FAS thioesterase domain inhibitors, dose response, biochemical, endpoint fluorescence intensity, uHTS hits (AID 624327); type: functional;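 note: fluorescence from hydrolysis of an O-methyl fluorescein acyl ester substrate by the enzyme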
[15] = tested on: Streptococcus; experiment: Group A Streptococcus viability loss, dose response, counter-screen for streptokinase expression inhibitor project, luminescence, BacTiterGlo (AID 1915); type: functional, organism-based;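 note: potency for reduction of bacterial viability or growth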
[16] = molecular target: T6, Delta-type opioid receptor (Homo sapiens, UniProt P41143); experiment: HTS Image-Based Screen for Agonists of the DOR Receptor. [Related pubchem assays (depositor defined):AID1777, AID1786, AID2133]; type: functional
[17] = molecular target: Induced myeloid leukemia cell differentiation protein Mcl-1 (Homo sapiens, UniProt Q07820); type: functional
[18] = molecular target: Mu-type opioid receptor (Homo sapiens, UniProt P35372); experiment: HTS Image-Based Screen for Agonists of the MOR Receptor. [Related pubchem assays (depositor defined):AID1777, AID1785, AID1786, AID2133]; type: functional;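 note: imaging of beta-arrestin GFP recruitment into spots after receptor activation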
[19] = molecular target: T6, Delta-type opioid receptor; experiment: HTS Image-Based Screen for Antagonists of the DOR Receptor. [Related pubchem assays (depositor defined):AID1777, AID1785, AID1786, AID2133]; type: functional
[20] = molecular target: Bifunctional protein GlmU (Mycobacterium tuberculosis, UniProt P9WMN3); experiment: Inhibitors of Mycobacterial Glucosamine-1-phosphate acetyl transferase (GlmU). Secondary screen.; set-up: species or system Mycobacterium tuberculosis H37Rv
[21] = molecular target: T7, Kappa-type opioid receptor (Homo sapiens, UniProt P41145); type: functional
[22] = molecular target: Beta Lactamase (Pseudomonas aeruginosa, UniProt Q932Y6); experiment: beta-lactamase reporter inhibitor potency, dose response, artefact control for TLR9-MyD88 binding inhibitor project, BLA reporter cells, FRET fluorescence (AID 588341); type: cell-based;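 note: cell based assay in CHO-K1 cells stably expressing beta-lactamase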
[23] = molecular target: T7, Kappa-type opioid receptor; type: functional; remark: listed apart in the source
[24] = molecular target: T8, Replicative DNA helicase DnaB (Mycobacterium tuberculosis, UniProt P9WMR3); experiment: DnaB intein splicing inhibitors, dose response, biochemical, cell-free fluorescence (AID 449749); type: functional
T8 sequence (P9WMR3 whole entry): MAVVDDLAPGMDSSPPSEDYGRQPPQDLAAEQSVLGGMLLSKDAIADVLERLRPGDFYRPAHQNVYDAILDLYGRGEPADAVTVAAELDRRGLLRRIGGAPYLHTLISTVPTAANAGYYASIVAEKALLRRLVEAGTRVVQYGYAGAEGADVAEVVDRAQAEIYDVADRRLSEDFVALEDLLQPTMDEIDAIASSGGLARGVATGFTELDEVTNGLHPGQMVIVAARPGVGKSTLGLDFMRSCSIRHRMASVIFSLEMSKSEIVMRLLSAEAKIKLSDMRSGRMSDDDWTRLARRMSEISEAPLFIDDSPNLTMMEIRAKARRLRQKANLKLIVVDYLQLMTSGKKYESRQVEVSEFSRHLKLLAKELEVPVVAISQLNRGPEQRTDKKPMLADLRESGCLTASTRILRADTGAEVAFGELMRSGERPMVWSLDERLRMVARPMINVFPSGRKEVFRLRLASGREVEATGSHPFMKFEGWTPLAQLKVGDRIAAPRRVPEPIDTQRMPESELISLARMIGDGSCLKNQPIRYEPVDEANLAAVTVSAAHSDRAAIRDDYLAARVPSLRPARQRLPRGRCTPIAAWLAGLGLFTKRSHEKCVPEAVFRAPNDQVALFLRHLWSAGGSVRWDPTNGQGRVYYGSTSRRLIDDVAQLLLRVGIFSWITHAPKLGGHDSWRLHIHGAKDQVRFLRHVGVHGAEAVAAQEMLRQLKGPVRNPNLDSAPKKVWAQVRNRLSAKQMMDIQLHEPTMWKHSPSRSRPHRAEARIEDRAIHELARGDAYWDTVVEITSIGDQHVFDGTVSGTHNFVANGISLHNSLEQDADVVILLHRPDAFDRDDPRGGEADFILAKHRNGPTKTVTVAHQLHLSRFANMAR

[25] = tested on: Streptococcus sp. 'group A'; experiment: growth inhibition of control SK(-) GAS strain, dose response, counter-screen for streptokinase expression inhibitor project, luminescence, kanamycin, BacTiterGlo, confirmation (AID 1900); type: functional, organism-based
[26] = molecular target: T9, Streptokinase A (Streptococcus pyogenes serotype M1, UniProt P10520); experiment: S. pyogenes streptokinase expression inhibitors, potency, dose response, plasminogen activation absorbance, OD405 (AID 1914); type: functional, Streptococcus pyogenes M1 GAS;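 note: secreted streptokinase activity via plasminogen activation per viability signal from cell pellet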
T9 sequence (P10520 whole entry): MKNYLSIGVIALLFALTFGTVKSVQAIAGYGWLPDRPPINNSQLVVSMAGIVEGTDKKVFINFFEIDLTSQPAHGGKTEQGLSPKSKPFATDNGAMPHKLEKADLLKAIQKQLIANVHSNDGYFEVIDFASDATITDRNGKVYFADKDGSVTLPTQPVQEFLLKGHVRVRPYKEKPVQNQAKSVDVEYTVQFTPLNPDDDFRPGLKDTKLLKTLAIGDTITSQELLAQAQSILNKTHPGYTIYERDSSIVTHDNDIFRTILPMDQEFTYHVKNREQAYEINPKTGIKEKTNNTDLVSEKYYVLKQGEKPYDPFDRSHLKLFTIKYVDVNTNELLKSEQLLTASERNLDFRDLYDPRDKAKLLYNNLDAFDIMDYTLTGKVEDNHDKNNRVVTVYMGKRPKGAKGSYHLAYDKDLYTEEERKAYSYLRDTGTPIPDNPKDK

[27] = molecular target: Beta-galactosidase (Escherichia coli, UniProt Q8VNN2); type: functional
[28] = molecular target: T10, Protein RecA (Mycobacterium tuberculosis, UniProt P9WHJ3); experiment: Fluorescence Cell-Free Homogeneous Dose Retest to Identify Inhibitors of RecA-Intein Splicing Activity. [Related pubchem assays (depositor defined):AID2097, AID2223, AID489010, AID492950]; type: functional
T10 sequence (P9WHJ3 whole entry): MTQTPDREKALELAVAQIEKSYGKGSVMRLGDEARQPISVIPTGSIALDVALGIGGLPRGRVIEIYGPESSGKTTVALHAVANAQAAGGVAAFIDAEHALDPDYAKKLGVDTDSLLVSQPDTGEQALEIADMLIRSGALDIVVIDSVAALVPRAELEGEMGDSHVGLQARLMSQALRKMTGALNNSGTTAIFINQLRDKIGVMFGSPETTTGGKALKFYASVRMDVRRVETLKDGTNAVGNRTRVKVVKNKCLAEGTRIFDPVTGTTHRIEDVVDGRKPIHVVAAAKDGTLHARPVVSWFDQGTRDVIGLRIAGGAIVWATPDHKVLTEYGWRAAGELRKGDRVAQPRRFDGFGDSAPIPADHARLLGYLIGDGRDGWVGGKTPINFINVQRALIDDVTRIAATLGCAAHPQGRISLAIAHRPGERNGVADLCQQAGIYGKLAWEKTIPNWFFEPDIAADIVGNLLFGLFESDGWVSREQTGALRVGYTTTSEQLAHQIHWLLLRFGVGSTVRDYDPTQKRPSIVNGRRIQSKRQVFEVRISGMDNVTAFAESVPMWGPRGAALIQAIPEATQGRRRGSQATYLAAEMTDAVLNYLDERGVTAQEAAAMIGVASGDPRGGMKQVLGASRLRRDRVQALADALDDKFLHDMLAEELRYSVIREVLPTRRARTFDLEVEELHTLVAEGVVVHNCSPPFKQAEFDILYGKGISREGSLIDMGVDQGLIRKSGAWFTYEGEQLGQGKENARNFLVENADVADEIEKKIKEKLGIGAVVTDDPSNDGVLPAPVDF

[29] = molecular target: T5, Fatty acid synthase; experiment: FAS thioesterase domain inhibitors, dose response, biochemical, kinetic fluorescence intensity (AID 624326); type: functional;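 note: rate of fluorescence rise from hydrolysis of a fluorogenic O-methyl fluorescein ester substrate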

T5 sequence (P49327 whole entry, the tested form may be a part): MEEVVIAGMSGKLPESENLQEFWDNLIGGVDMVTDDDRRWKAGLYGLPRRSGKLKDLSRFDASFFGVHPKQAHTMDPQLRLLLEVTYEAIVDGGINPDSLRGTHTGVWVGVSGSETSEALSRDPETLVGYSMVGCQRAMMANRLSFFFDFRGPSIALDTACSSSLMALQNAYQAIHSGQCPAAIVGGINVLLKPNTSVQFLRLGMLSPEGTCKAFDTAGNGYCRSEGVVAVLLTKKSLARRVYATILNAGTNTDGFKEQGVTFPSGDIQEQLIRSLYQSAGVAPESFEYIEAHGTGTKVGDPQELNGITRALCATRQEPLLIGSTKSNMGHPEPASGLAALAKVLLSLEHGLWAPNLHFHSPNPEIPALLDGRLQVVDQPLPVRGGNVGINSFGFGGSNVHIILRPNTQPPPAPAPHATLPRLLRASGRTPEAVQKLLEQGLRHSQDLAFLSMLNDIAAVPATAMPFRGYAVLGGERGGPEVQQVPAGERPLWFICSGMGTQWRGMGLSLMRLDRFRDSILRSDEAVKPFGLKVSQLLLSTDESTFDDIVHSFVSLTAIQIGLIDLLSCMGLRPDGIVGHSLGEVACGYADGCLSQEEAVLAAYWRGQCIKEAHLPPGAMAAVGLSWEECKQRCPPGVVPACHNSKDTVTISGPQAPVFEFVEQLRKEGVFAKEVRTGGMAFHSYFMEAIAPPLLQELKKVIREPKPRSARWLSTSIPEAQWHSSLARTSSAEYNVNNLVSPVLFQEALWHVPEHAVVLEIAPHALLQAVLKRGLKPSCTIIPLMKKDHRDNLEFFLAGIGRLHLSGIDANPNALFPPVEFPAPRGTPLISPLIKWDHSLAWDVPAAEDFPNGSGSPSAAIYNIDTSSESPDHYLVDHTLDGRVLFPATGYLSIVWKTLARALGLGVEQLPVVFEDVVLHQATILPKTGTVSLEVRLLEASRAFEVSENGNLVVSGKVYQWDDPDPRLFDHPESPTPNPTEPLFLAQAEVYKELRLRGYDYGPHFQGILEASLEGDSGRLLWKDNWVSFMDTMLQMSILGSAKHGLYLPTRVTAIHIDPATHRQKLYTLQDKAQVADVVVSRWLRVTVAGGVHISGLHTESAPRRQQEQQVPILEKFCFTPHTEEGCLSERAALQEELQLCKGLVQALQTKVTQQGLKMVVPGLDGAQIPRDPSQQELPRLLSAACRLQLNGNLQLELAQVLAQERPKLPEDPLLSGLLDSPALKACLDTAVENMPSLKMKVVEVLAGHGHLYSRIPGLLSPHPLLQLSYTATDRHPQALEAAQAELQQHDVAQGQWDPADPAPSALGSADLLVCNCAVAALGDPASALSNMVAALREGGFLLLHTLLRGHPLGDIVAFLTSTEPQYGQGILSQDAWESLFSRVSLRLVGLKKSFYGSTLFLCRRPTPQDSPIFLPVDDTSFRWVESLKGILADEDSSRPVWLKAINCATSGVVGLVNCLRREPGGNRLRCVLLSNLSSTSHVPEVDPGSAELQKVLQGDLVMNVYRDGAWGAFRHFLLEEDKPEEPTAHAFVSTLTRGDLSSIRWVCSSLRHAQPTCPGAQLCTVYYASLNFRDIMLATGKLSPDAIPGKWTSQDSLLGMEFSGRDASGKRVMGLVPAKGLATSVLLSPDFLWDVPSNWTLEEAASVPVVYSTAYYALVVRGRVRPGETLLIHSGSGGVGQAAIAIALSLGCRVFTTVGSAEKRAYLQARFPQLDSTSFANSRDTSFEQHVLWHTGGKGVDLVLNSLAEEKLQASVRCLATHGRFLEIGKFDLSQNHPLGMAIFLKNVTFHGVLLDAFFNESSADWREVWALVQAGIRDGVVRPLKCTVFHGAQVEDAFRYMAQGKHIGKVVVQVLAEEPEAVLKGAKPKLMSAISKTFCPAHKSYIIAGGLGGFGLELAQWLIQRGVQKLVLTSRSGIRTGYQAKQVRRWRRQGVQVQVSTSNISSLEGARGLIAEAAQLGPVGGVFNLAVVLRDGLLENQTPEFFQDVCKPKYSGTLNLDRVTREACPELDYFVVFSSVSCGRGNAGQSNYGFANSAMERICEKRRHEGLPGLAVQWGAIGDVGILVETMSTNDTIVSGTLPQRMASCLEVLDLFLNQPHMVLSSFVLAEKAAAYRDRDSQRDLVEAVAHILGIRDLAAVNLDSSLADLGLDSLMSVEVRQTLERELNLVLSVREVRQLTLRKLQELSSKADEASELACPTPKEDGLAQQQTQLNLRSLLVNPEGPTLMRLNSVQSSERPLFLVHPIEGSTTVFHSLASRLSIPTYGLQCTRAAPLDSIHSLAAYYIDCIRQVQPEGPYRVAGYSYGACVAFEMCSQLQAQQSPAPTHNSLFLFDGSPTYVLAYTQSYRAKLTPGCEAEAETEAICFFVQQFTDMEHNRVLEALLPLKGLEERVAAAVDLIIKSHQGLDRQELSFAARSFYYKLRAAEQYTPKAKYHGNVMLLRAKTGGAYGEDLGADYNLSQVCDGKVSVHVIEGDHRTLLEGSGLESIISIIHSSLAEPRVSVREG
T6 sequence (P41143 whole entry): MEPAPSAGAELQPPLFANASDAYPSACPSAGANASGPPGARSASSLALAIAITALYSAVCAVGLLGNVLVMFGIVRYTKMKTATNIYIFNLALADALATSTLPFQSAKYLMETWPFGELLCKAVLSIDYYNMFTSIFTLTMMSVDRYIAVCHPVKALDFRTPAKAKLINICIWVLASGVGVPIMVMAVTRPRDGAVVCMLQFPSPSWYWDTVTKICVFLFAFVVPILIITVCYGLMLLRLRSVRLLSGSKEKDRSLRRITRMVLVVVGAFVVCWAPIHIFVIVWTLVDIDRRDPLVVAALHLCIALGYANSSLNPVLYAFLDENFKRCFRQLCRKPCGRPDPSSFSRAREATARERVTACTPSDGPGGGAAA
T4 sequence (P65502 whole entry): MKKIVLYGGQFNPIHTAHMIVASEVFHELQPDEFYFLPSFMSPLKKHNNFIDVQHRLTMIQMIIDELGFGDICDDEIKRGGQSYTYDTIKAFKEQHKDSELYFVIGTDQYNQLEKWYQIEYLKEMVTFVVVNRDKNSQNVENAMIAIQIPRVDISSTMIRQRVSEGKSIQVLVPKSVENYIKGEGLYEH
T7 sequence (P41145 whole entry): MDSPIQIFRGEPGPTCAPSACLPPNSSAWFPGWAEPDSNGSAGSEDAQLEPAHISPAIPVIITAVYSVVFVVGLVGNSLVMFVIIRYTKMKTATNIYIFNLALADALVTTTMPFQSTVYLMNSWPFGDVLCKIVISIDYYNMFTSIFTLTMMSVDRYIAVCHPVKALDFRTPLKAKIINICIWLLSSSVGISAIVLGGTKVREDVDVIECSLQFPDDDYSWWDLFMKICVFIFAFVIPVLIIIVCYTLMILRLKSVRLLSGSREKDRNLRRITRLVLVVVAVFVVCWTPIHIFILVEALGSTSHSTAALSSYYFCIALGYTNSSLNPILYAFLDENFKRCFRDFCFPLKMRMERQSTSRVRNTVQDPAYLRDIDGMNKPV
Chain of Bifunctional protein GlmU (P9WMN3 whole entry): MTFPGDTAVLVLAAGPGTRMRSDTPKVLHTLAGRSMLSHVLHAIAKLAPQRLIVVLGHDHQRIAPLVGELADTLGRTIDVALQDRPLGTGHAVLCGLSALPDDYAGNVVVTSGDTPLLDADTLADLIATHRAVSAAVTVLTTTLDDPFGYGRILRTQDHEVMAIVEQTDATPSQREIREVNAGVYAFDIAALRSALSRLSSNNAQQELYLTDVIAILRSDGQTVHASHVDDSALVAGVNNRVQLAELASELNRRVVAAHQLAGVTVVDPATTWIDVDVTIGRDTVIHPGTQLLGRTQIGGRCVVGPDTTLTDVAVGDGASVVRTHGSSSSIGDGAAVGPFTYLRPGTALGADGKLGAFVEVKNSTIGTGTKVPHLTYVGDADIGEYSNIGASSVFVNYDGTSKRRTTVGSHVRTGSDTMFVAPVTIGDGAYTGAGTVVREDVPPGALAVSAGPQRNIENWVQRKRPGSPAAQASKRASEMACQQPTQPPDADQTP
Chain of Beta-galactosidase (Q8VNN2 whole entry): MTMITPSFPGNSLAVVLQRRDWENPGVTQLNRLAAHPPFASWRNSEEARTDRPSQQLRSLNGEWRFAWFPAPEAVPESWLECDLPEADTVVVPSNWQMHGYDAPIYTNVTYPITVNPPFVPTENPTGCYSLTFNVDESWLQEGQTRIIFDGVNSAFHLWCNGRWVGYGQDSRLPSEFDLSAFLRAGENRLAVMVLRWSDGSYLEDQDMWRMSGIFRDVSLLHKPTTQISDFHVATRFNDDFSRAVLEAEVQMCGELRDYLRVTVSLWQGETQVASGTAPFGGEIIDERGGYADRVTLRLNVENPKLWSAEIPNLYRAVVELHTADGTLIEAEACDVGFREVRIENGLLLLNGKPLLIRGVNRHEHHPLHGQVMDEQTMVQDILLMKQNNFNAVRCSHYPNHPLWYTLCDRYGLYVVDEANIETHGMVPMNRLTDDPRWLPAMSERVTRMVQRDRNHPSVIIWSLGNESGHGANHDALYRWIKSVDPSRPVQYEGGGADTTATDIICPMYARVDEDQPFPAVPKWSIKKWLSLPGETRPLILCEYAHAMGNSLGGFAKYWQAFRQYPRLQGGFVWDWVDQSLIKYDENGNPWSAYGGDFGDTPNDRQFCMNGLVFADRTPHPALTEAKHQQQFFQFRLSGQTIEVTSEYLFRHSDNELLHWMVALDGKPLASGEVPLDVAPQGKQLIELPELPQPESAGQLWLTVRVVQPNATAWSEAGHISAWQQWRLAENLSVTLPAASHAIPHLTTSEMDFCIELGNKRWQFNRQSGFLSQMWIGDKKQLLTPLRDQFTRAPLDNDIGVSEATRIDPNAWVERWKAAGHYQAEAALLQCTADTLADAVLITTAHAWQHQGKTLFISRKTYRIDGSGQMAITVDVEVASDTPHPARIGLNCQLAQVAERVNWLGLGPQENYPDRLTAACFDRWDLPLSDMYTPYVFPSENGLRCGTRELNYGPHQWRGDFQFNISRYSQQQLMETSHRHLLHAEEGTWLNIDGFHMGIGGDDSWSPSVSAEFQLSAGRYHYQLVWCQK

C#CCOCCOCCOCCNc1nc(N2CCN(C(=O)CCCCCCCCCCNC(=O)[C@H](CCCCN)n3cc(C)nn3)CC2)nc(N2CCN(C(=O)CCCCCCCCCCNC(=O)[C@H](CO)n3cc(CCCSC)nn3)CC2)n1
active: IC50 [1] 9.88 µM | IC50 [3] 4.05 µM | IC50 [4] 6.96 µM | EC50 [5] > 6.08 µM
inactive: EC50 [2] > 55.9 µM | IC50 [6] > 20 µM | EC50 [7] > 54.7 µM

Cc1ccccc1CN1C(=O)C(C)Sc2ccc(-c3ccco3)cc21 (stereo not drawn)
inactive: IC50 [10] > 100 µM
active: IC50 [8] 14.2 µM | IC50 [9] 31.3 µM | IC50 [11] 36.2 µM | IC50 [12] 43.3 µM

O=C1CC2(CCCC2)CC(=O)N1c1ccccc1
inactive: IC50 [1] > 89.1 µM | EC50 [2] > 55.9 µM | EC50 [5] > 54.7 µM | EC50 [7] > 54.7 µM

Cc1nnc(Sc2cc(NCCCO)c([N+](=O)[O-])c3nonc23)s1
< 4.49: pIC50 [21]
inconclusive: EC50 [26] 21.2 µM
inactive: EC50 [16] > 32 µM | EC50 [18] > 32 µM | IC50 [19] > 32 µM | IC50 [22] 10.9 µM | EC50 [27] > 31.5 µM
active: IC50 [13] 3.37 µM | IC50 [14] 3.78 µM | EC50 [15] 7.62 µM | IC50 [17] 3.11 µM | IC50 [20] 77.8 µM | IC50 [23] 6.15 µM | AC50 [24] 2.07 µM | EC50 [25] 6.33 µM | EC50 [28] 1.85 µM | IC50 [29] 3.99 µM
